Two molecules from patent publication US8304443B2, “Indazole derivatives” (Asahi Kasei Pharma Corporation, priority 2008, dated 2012) can be followed below.

Usually solubility stands for how much of the substance goes into solution per volume. Read a high solubility as a readily soluble substance.

Data set [1] concerns the target T1, human β1 adrenergic receptor (Homo sapiens, UniProt P08588).
T1 construct: expressed in transfected cells; host or cells: CHO (Chinese hamster ovary) cells, pcDNA3
The data set can be described thus: Test example 2-B: human β1 adrenergic receptor agonist activity. The class given is cell-based. To be noted: 0.5 h; read-out: β1 receptor I.A.

Data set [2] addresses T2, human β2 adrenergic receptor (Homo sapiens, UniProt P07550).
T2 construct: expressed in transfected cells; host or cells: CHO (Chinese hamster ovary) cells, pcDNA3
In words: Test example 3-B: human β2 adrenergic receptor agonist activity. The class given is cell-based. The note with it: read-out: β2 receptor I.A.

Data set [3] deals with rat under pentobarbital anesthesia. The data set can be described thus: Test example 9: effect on blood pressure and heart rate of a rat under pentobarbital anesthesia. The class given is in vivo. To be noted: male SD rat, 3 mg/kg intravenous bolus; greatest change of mean blood pressure relative to before administration; mean ± standard deviation. On the procedure:
After measuring blood pressure and heart rate of a rat under pentobarbital anesthesia, an effect of intravenous bolus administration of a test compound on blood pressure and heart rate can be determined. To a male SD rat (Japan SLC Inc.), sodium pentobarbital (Tokyo Chemical Industry Co., Ltd.) is intraperitoneally administered for induction of anesthesia (50 mg/kg). As maintenance anesthetics, sodium pentobarbital is subcutaneously administered (25 mg/kg). Left femoral vein is exposed and stripped, and then a polyethylene tube SP10 (connected to a three-way stopcock via ¼ vein needle) which has been filled with physiological saline is inserted and left in the vein.
Left medial femoral region is cut to expose and strip the femoral artery, and then a polyethylene tube (SP31, connected to a three-way stopcock via 22 G injection needle by TERUMO Corporation) which has been filled with heparin physiological saline is inserted and connected to a pressure transducer. Blood pressure is measured from the pressure transducer by using a modified pressure amplifier (AP-641 G, Nihon Kohden Corporation). Heart rate is measured by using the Heart rate Counter (AT-601 g, Nihon Kohden Corporation) while having the pulse wave of the blood pressure as a trigger. The blood pressure, mean blood pressure and heart rate are transmitted to the data recorder for recordation. In addition, the mean blood pressure is recorded using a modified pressure amplifier (AP-641 G) according to the equation of {diastolic blood pressure+(systolic blood pressure−diastolic blood pressure)/3}.
Blood pressure and heart rate measurement is started, and after confirming that each value remains almost constant, the test compound (3 mg/kg) is administered to the left femoral vein for 30 seconds. Specifically, the test compound with 3 mg/mL concentration is bolus administered at the administration dose of 1 mL/kg. Relative value (%) at each time point compared to the mean blood pressure and the heart rate before the administration is obtained for each individual. […]

A short description of data set [4]: Test example 10: saturation solubility in pure water. The class given is physicochemical. To be noted: thermodynamic from solid, room temperature, shaken 1 hour. The protocol:
Test compound is prepared to saturation state in pure water. The resulting solution is shaken at room temperature for 1 hour. To a filter tube, the entire solution obtained after the shaking is transferred and is subjected to centrifugal filtration at room temperature. The filtrate is analyzed by HPLC, and by using a calibration curve, saturation solubility of the test compound is obtained from the peak area value.
(§1) Standard solution is prepared by precisely weighing each test compound and fully dissolving it in pure water. Calibration curve is established by having the concentration of the standard solution as a horizontal axis and the HPLC area value at the corresponding concentration as a vertical axis.
(§2) As a separation column, YMC-Pack C18 (4.6 mm×150 mm, manufactured by YMC) is used. Detection is made at UV-254 nm and the temperature inside the column is 40° C. Condition for elution is as follows; with flow rate of 1 ml/minute, solution A as a solvent=water [comprising 0.1% (v/v) acetic acid] and solution B=acetonitrile are used, and from minute 0 to minute 20, 5 to 98% (v/v) linear gradient of solution B is applied, followed by elution with 98% of solution B until minute 25 and elution with 5% of solution B from minute 25.01 to minute 35.

Data set [5] in a line: Test example 12: solubility test in physiological saline. The class given is physicochemical. To be noted: saline or isotonic, thermodynamic from solid, 37° C., prepared at 1000 μg/mL. On the procedure:
500 μg of the test compound is precisely weighed, and then added with hydrochloric acid buffer solution having pH 1.2 until the concentration of 1000 μg/mL is obtained. The […] is shaken at 37° C. for 1 hour. To a filter tube, the entire solution obtained after the shaking is transferred and is subjected to centrifugal filtration at room temperature. The filtrate is analyzed by HPLC, and by using a calibration curve, saturation solubility of the test compound is obtained from the peak area value.
Except that the hydrochloric acid buffer solution having pH 1.2 is replaced with physiological saline, the test is carried out in the same method as Test example 11 to obtain the solubility of the test compound.

A short description of data set [6]: Test example 13: stability test in pure water. The class given is physicochemical. To be noted: for stability in pure water (finding): up to 48 hours. The protocol:
(§3) Test compound is prepared to saturation state in pure water. The resulting solution is shaken at room temperature for 1 hour. To a filter tube, the entire solution obtained after the shaking is transferred and is subjected to centrifugal filtration at room temperature. The filtrate is analyzed by HPLC right after the filtration, 24 hours, and 48 hours after the filtration. Then, by using a calibration curve, stability of the test compound is obtained from the peak area value.
as §1, §2

A short description of data set [7]: Test example 14: stability in phosphate buffer solution having pH 6.8. The note with it: for HPLC area percentage at 24 hours after the filtration / HPLC area percentage at 48 hours after the filtration / HPLC area percentage right after the filtration: phosphate buffer solution pH 6.8; for stability in phosphate buffer solution pH 6.8 (finding): up to 48 hours. The class given is physicochemical. The protocol:
as §3
Except that pure water is replaced with phosphate buffer solution having pH 6.8, the test is carried out in the same method as Test example 13 to obtain the stability of the test compound.

The subject of data set [8] is urinary bladder smooth muscle isolated from common marmoset. In words: Test example 7: relaxant activity on urinary bladder smooth muscle isolated from common marmoset. The note with it: strips contracted by 40 mmol/L KCl, papaverine 10^−4 mol/L relaxation = 100%.
Experimental: Specifically, a common marmoset (CLEA Japan, Inc.) is bled to exsanguinated death, and then the urinary bladder is taken out of the marmoset via laparotomy. […] A resting tension of 1 g is applied to the strips, which is then equilibrated for more than 30 minutes. […] The final concentration is 10^−9, 10^−8, 10^−7, 10^−8, 10^−5 and 10^−4 mol/L. Upon the completion of the relaxation response to the test compound at the highest concentration, papaverine with final concentration of 10^−4 mol/L is added and the maximum relaxation response is obtained for each strip. This relaxation response is taken as 100%, and the relaxation ratio (%) is obtained for the test compound at the concentrations of 10^−5 and 10^−4 mol/L.

SMILES strings stand for the structures. ≈ marks a conversion by molar mass, not a printed value.

T1 sequence (P08588 whole entry): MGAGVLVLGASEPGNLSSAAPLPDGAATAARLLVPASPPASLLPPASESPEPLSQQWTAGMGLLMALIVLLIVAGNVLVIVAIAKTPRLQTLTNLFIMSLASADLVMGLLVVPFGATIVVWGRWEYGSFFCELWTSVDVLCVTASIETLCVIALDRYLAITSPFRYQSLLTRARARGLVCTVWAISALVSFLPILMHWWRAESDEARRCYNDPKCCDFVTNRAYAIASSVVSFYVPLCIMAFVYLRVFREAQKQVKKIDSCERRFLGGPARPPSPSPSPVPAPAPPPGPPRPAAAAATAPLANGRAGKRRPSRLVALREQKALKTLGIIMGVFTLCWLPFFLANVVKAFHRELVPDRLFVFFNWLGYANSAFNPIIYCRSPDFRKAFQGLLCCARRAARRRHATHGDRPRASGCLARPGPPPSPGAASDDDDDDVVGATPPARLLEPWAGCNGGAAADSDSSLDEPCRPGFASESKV
T2 sequence (P07550 whole entry): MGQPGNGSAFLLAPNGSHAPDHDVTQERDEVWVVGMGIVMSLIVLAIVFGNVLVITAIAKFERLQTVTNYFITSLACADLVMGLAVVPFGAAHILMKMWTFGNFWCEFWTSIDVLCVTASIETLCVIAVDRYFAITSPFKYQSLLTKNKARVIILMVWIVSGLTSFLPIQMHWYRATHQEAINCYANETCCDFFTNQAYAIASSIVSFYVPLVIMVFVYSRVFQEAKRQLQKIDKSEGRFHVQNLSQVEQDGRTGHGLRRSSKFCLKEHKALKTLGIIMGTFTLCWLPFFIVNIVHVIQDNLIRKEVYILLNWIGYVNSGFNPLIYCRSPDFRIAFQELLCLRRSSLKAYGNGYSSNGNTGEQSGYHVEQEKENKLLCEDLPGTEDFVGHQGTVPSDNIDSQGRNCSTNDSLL

Take `CS(=O)(=O)Nc1cccc([C@@H](O)CNCCOc2ccc3c(C4CC4)n[nH]c3c2)c1` [Example 1, (R)—N-(3-(1-Hydroxy-2-(2-(3-cyclopropylindazol-6-yloxy)ethylamino)ethyl)phenyl)methanesulfonamide]: in data set [1], the Emax amounted to 10%. Also, the Emax in data set [2] turned out to be 6.3%. Further, in data set [3], the “increase in MBP (%)” value came to 2.7 ± 0.5%. In data set [4], this molecule yielded a solubility at 1 h of 55 mg/mL (≈ 128 mM). In addition, in data set [5], the concentration in solution (solubility at 1 h) was 999 µg/mL (≈ 2.32 mM). Besides, in data set [6], the “HPLC area percentage at 24 hours after the filtration” value (shortened to “HPLC area percentage at 24 hours”) was found to be 95.6%, the “HPLC area percentage at 48 hours after the filtration” value (from here on “HPLC area percentage at 48 hours”) is on record as 95.6%, the “HPLC area percentage right after the filtration” value (“HPLC area percentage right” for short) was found to be 95.7% and the “stability in pure water (finding)” value was “stable”. In addition, in data set [7], the “HPLC area percentage at 24 hours” value is 95.5%, the “HPLC area percentage at 48 hours” value amounted to 95.5%, the “HPLC area percentage right” value came to 95.7% and the “stability in phosphate buffer solution pH 6.8 (finding)” value is listed as “stable”. Moreover, in data set [8], the “relaxant activity (%) 10^−4 M” value worked out at 55.7% and the “relaxant activity (%) 10^−5 M” value is 38.6%.
In the case of `CS(=O)(=O)Nc1cccc([C@@H](O)CNCCOc2ccc3c(C4CCC4)n[nH]c3c2)c1` [Example 2, (R)—N-(3-(1-Hydroxy-2-(2-(3-cyclobutylindazol-6-yloxy)ethylamino)ethyl)phenyl)methanesulfonamide], the Emax in data set [1] worked out at 9.9%. Further, the Emax in data set [2] was found to be 3.8%. Besides, in data set [3], the “increase in MBP (%)” value is 4.0 ± 2.6%. For the same molecule, in data set [4], the solubility at 1 h came out at 53 mg/mL (≈ 119 mM). In data set [5], this molecule came in with a solubility at 1 h of 999 µg/mL (≈ 2.25 mM). Further, in data set [6], the “HPLC area percentage at 24 hours” value amounted to 95.2%, the “HPLC area percentage at 48 hours” value came out at 95.0%, the “HPLC area percentage right” value was 95.2% and the “stability in pure water (finding)” value is on record as “stable”. Besides, in data set [7], the “HPLC area percentage at 24 hours” value was determined as 93.3%, the “HPLC area percentage at 48 hours” value worked out at 94.5%, the “HPLC area percentage right” value is reported as 95.1% and the “stability in phosphate buffer solution pH 6.8 (finding)” value is listed as “stable”. Further, in data set [8], the “relaxant activity (%) 10^−4 M” value came to 65.6% and the “relaxant activity (%) 10^−5 M” value came to 50.8%.
